In PubChem BioAssay (NCI):
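Following 48 hours of exposure in 96-well plates, responses at five concentrations were used to interpolate endpoints linearly. TGI marks complete inhibition of growth.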

Assays:
Experiment in all cases: inhibition of tumour cell growth, NCI panel, 48 h
MDA-MB-231 breast = system: MDA-MB-231 breast
MOLT-4 leukemia = system: MOLT-4 leukemia
SF-539 CNS = system: SF-539 CNS
IGROV1 ovarian = system: IGROV1 ovarian
NCI-H522 lung = system: NCI-H522 lung
NCI/ADR-RES ovarian = system: NCI/ADR-RES ovarian
RPMI-8226 leukemia = system: RPMI-8226 leukemia
NCI-H23 lung = system: NCI-H23 lung
UO-31 renal = system: UO-31 renal
SW-620 colon = system: SW-620 colon
NCI-H226 lung = system: NCI-H226 lung
COLO 205 colon = system: COLO 205 colon
HCT-15 colon = system: HCT-15 colon
MALME-3M melanoma = system: MALME-3M melanoma
SF-268 CNS = system: SF-268 CNS
HOP-92 NSCLC = system: HOP-92 NSCLC
SR leukemia = system: SR leukemia
UACC-62 melanoma = system: UACC-62 melanoma
KM12 colon = system: KM12 colon
MCF7 breast = system: MCF7 breast
ACHN renal = system: ACHN renal
TK-10 renal = system: TK-10 renal
K-562 leukemia = system: K-562 leukemia
A498 renal = system: A498 renal
DU-145 prostate = system: DU-145 prostate
HOP-62 NSCLC = system: HOP-62 NSCLC
A549 NSCLC = system: A549 NSCLC
OVCAR-4 ovarian = system: OVCAR-4 ovarian
OVCAR-8 ovarian = system: OVCAR-8 ovarian
SK-MEL-28 melanoma = system: SK-MEL-28 melanoma
786-0 renal = system: 786-0 renal
SK-MEL-5 melanoma = system: SK-MEL-5 melanoma
UACC-257 melanoma = system: UACC-257 melanoma
HCC-2998 colon = system: HCC-2998 colon
CAKI-1 renal = system: CAKI-1 renal
SF-295 CNS = system: SF-295 CNS
SK-OV-3 ovarian = system: SK-OV-3 ovarian
T-47D breast = system: T-47D breast
M14 melanoma = system: M14 melanoma
OVCAR-3 ovarian = system: OVCAR-3 ovarian
OVCAR-5 ovarian = system: OVCAR-5 ovarian
SK-MEL-2 melanoma = system: SK-MEL-2 melanoma
U251 CNS = system: U251 CNS
HT29 colon = system: HT29 colon
MDA-MB-435 = system: MDA-MB-435
RXF 393 renal = system: RXF 393 renal
BT-549 breast = system: BT-549 breast
NCI-H460 lung = system: NCI-H460 lung
SN12C renal = system: SN12C renal
HS 578T breast = system: HS 578T breast
HCT-116 colon = system: HCT-116 colon
CCRF-CEM leukemia = system: CCRF-CEM leukemia
MDA-N = system: MDA-N
SNB-75 CNS = system: SNB-75 CNS
PC-3 prostate = system: PC-3 prostate
SNB-19 CNS = system: SNB-19 CNS
HL-60(TB) leukemia = system: HL-60(TB) leukemia
EKVX NSCLC = system: EKVX NSCLC
LOX IMVI melanoma = system: LOX IMVI melanoma

## CC(=O)N1N=C(c2ccc3ccccc3c2O)CC1c1ccc(N(C)C)cc1 (centres undefined)
MDA-MB-231 breast
  TGI: > 100 µM
MOLT-4 leukemia
  TGI: > 100 µM
SF-539 CNS
  TGI: > 100 µM
IGROV1 ovarian
  TGI: > 100 µM
NCI-H522 lung
  TGI: > 100 µM
NCI/ADR-RES ovarian
  TGI: > 100 µM
RPMI-8226 leukemia
  TGI: > 100 µM
NCI-H23 lung
  TGI: > 100 µM
UO-31 renal
  TGI: > 100 µM
SW-620 colon
  TGI: > 100 µM
NCI-H226 lung
  TGI: > 100 µM
COLO 205 colon
  TGI: > 100 µM
HCT-15 colon
  TGI: > 100 µM
MALME-3M melanoma
  TGI: > 100 µM
SF-268 CNS
  TGI: > 100 µM
HOP-92 NSCLC
  TGI: > 100 µM
SR leukemia
  TGI: > 100 µM
UACC-62 melanoma
  TGI: > 100 µM
KM12 colon
  TGI: > 100 µM
MCF7 breast
  TGI: > 100 µM
ACHN renal
  TGI: > 100 µM
TK-10 renal
  TGI: > 100 µM
K-562 leukemia
  TGI: > 100 µM
A498 renal
  TGI: > 100 µM
DU-145 prostate
  TGI: > 100 µM
HOP-62 NSCLC
  TGI: > 100 µM
A549 NSCLC
  TGI: > 100 µM
OVCAR-4 ovarian
  TGI: > 100 µM
OVCAR-8 ovarian
  TGI: > 100 µM
SK-MEL-28 melanoma
  TGI: > 100 µM
786-0 renal
  TGI: > 100 µM
SK-MEL-5 melanoma
  TGI: > 100 µM
UACC-257 melanoma
  TGI: > 100 µM
HCC-2998 colon
  TGI: > 100 µM
CAKI-1 renal
  TGI: > 100 µM
SF-295 CNS
  TGI: > 100 µM
SK-OV-3 ovarian
  TGI: > 100 µM
T-47D breast
  TGI: > 100 µM
M14 melanoma
  TGI: > 100 µM
OVCAR-3 ovarian
  TGI: > 100 µM
OVCAR-5 ovarian
  TGI: > 100 µM
SK-MEL-2 melanoma
  TGI: > 100 µM
U251 CNS
  TGI: > 100 µM
HT29 colon
  TGI: > 100 µM
MDA-MB-435
  TGI: > 100 µM
RXF 393 renal
  TGI: > 100 µM
BT-549 breast
  TGI: > 100 µM
NCI-H460 lung
  TGI: > 100 µM
SN12C renal
  TGI: > 100 µM
HS 578T breast
  TGI: > 100 µM
HCT-116 colon
  TGI: > 100 µM
CCRF-CEM leukemia
  TGI: > 100 µM
MDA-N
  TGI: > 100 µM
SNB-75 CNS
  TGI: > 100 µM
PC-3 prostate
  TGI: > 100 µM

## c1ccc(COC[C@H]2C3OCC([C@H](OCc4ccccc4)[C@H]3OCc3ccccc3)N2Cc2ccccc2)cc1 (some centres undefined)
SNB-19 CNS
  TGI: > 100 µM
MDA-MB-231 breast
  TGI: > 100 µM
MOLT-4 leukemia
  TGI: > 51.7 µM
SF-539 CNS
  TGI: > 100 µM
IGROV1 ovarian
  TGI: > 100 µM
NCI-H522 lung
  TGI: > 82 µM
NCI/ADR-RES ovarian
  TGI: > 100 µM
RPMI-8226 leukemia
  TGI: > 100 µM
NCI-H23 lung
  TGI: > 100 µM
UO-31 renal
  TGI: > 100 µM
SW-620 colon
  TGI: > 100 µM
HL-60(TB) leukemia
  TGI: > 53.4 µM
NCI-H226 lung
  TGI: > 100 µM
EKVX NSCLC
  TGI: > 100 µM
COLO 205 colon
  TGI: > 100 µM
HCT-15 colon
  TGI: > 100 µM
MALME-3M melanoma
  TGI: > 100 µM
SF-268 CNS
  TGI: > 100 µM
HOP-92 NSCLC
  TGI: > 100 µM
SR leukemia
  TGI: > 100 µM
UACC-62 melanoma
  TGI: > 100 µM
KM12 colon
  TGI: > 100 µM
MCF7 breast
  TGI: > 100 µM
ACHN renal
  TGI: > 100 µM
TK-10 renal
  TGI: > 100 µM
K-562 leukemia
  TGI: > 83 µM
A498 renal
  TGI: > 100 µM
DU-145 prostate
  TGI: > 100 µM
HOP-62 NSCLC
  TGI: > 100 µM
A549 NSCLC
  TGI: > 100 µM
OVCAR-4 ovarian
  TGI: > 100 µM
OVCAR-8 ovarian
  TGI: > 100 µM
SK-MEL-28 melanoma
  TGI: > 100 µM
786-0 renal
  TGI: > 100 µM
SK-MEL-5 melanoma
  TGI: > 100 µM
UACC-257 melanoma
  TGI: > 100 µM
HCC-2998 colon
  TGI: > 100 µM
CAKI-1 renal
  TGI: > 100 µM
SF-295 CNS
  TGI: > 100 µM
SK-OV-3 ovarian
  TGI: > 100 µM
T-47D breast
  TGI: > 100 µM
M14 melanoma
  TGI: > 100 µM
OVCAR-3 ovarian
  TGI: > 100 µM
OVCAR-5 ovarian
  TGI: > 100 µM
SK-MEL-2 melanoma
  TGI: > 100 µM
U251 CNS
  TGI: > 100 µM
HT29 colon
  TGI: > 100 µM
MDA-MB-435
  TGI: > 100 µM
RXF 393 renal
  TGI: > 100 µM
BT-549 breast
  TGI: > 100 µM
NCI-H460 lung
  TGI: > 100 µM
SN12C renal
  TGI: > 100 µM
HS 578T breast
  TGI: > 100 µM
HCT-116 colon
  TGI: > 100 µM
CCRF-CEM leukemia
  TGI: > 100 µM
LOX IMVI melanoma
  TGI: > 100 µM
MDA-N
  TGI: > 100 µM
SNB-75 CNS
  TGI: > 100 µM
PC-3 prostate
  TGI: > 100 µM
